This experiment deals with L1210 leukemia ip in BDF1 mice, survival T/C. In words: NCI In Vivo Anticancer Drug Screen. Data for tumor model L1210 Leukemia (intraperitoneal) in B6D2F1 (BDF1) mice. Conditions: endpoint: mean survival time, higher = longer survival. In short, it runs like this: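 Transplanted-tumor mice were given test agent; controls received vehicle only. Survival readings from the two groups were divided (treated over control).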

The mark [1] stands for this setting: dose: 100.0 mg/kg/injection, schedule: Q01DX001 (ip), vehicle: saline.
Where [2] appears, read: dose: 200.0 mg/kg/injection, schedule: Q01DX001 (ip), vehicle: saline.
The mark [3] stands for this setting: dose: 400.0 mg/kg/injection, schedule: Q01DX001 (ip), vehicle: saline.
Setting [4] is: dose: 100.0 mg/kg/injection, schedule: Q01DX001 (ip), vehicle: saline with Tween-80.
[5] abbreviates: dose: 100.0 mg/kg/injection, schedule: Q01DX009 (ip), vehicle: saline with Tween-80.
Setting [6] is: dose: 200.0 mg/kg/injection, schedule: Q01DX001 (ip), vehicle: saline with Tween-80.
[7] abbreviates: dose: 50.0 mg/kg/injection, schedule: Q01DX009 (ip), vehicle: saline.

Where “and” joins values, the source holds several entries; their conditions need not be identical. Identical values can stand only once. Inconclusive results and toxic doses are left out. Square brackets hold non-standard residues; d marks the D form. Peptide text beside a SMILES is read from it. * marks the point of attachment. Cbz = O=C(OCc1ccccc1)*; Sar = CNCC(=O)O

As to `O=C1c2cc(Br)ccc2-c2c(F)cc(Br)cc21`, the T/C (dose: 50.0 mg/kg/injection, schedule: Q01DX001 (ip), vehicle: carboxymethylcellulose (CMC)) was 105 % of control; the T/C (dose: 100.0 mg/kg/injection, schedule: Q01DX001 (ip), vehicle: carboxymethylcellulose (CMC)) was 100 % of control; the T/C (dose: 200.0 mg/kg/injection, schedule: Q01DX001 (ip), vehicle: carboxymethylcellulose (CMC)) is 100 % of control; the T/C (dose: 400.0 mg/kg/injection, schedule: Q01DX001 (ip), vehicle: carboxymethylcellulose (CMC)) is 94 % of control.
Turning to `CCCOCCOCCOC(C)Oc1cc(OC)ccc1OC` (centres undefined), the T/C reads like this: (dose: 100.0 mg/kg/injection, schedule: Q04DX002 (ip), vehicle: saline) 93 % of control; (dose: 200.0 mg/kg/injection, schedule: Q04DX002 (ip), vehicle: saline) 111 % of control; (dose: 400.0 mg/kg/injection, schedule: Q04DX002 (ip), vehicle: saline) 96 % of control.
As to `CN(C)C1CCc2c(ccc3ccccc23)C1=O` (centres undefined), the T/C (dose: 25.0 mg/kg/injection, schedule: Q01DX001 (ip), vehicle: saline) was 99 % of control; the T/C (dose: 50.0 mg/kg/injection, schedule: Q01DX001 (ip), vehicle: saline) was 99 % of control; the T/C under setting [1] is 100 % of control.
In the case of `O=C(O)CC1OCC=C2CN3CCC45C6=CC(=O)C(=O)C([N+](=O)[O-])=C6NC4C1C2CC35` (centres undefined), the T/C (dose: 25.0 mg/kg/injection, schedule: Q01DX001 (ip), vehicle: carboxymethylcellulose (CMC)) is 98 % of control.
Take `Nc1nc(Nc2ccc(Cl)c(Cl)c2)cc(=O)[nH]1`: where the note is “dose: 200.0 mg/kg/injection, schedule: Q01DX Z (ip), vehicle: methylcellulose (MC)”, the T/C is 86 % of control.
For the molecule `CC(C)CC(C)(CC(C)C)C(=O)O`, the T/C is, setting by setting: under setting [1], 100 % of control; under setting [2], 100 % of control; under setting [3], 102 % of control.
As for `CC(=O)OCC1OC(NC(=O)N(CCCl)N=O)C(OC(C)=O)C(OC(C)=O)C1OC(C)=O` (centres undefined), the T/C runs as follows: (dose: 6.0 mg/kg/injection, schedule: Q01DX001 (ip), vehicle: saline with Tween-80) 246 % of control; (dose: 9.0 mg/kg/injection, schedule: Q01DX001 (ip), vehicle: saline with Tween-80) 342 % of control; (dose: 13.0 mg/kg/injection, schedule: Q01DX001 (ip), vehicle: saline with Tween-80) 428 % of control; (dose: 20.0 mg/kg/injection, schedule: Q01DX001 (ip), vehicle: saline with Tween-80) 393 % of control; (dose: 30.0 mg/kg/injection, schedule: Q01DX001 (ip), vehicle: saline with Tween-80) 324 % of control.
As to `COc1ccc(Cl)cc1NC(=O)Oc1c(C)cccc1C`, the T/C reads like this: under setting [4], 106 % of control; under setting [5], 96 % of control; (dose: 100.0 mg/kg/injection, schedule: Q04DX002 (ip), vehicle: saline with Tween-80) 95 % of control and 89 % of control; under setting [6], 90 % of control; (dose: 200.0 mg/kg/injection, schedule: Q01DX009 (ip), vehicle: saline with Tween-80) 98 % of control; (dose: 200.0 mg/kg/injection, schedule: Q04DX002 (ip), vehicle: saline with Tween-80) 95 % of control and 97 % of control. The T/C is, setting by setting: (dose: 400.0 mg/kg/injection, schedule: Q01DX001 (ip), vehicle: saline with Tween-80) 96 % of control; (dose: 400.0 mg/kg/injection, schedule: Q01DX009 (ip), vehicle: saline with Tween-80) 102 % of control; (dose: 400.0 mg/kg/injection, schedule: Q04DX002 (ip), vehicle: saline with Tween-80) 95 % of control and 98 % of control.
As for `COc1ccc([I+]c2ccccc2)cc1`, the T/C (dose: 6.25 mg/kg/injection, schedule: Q04DX003 (ip), vehicle: saline) is 98 % of control; the T/C (dose: 9.0 mg/kg/injection, schedule: Q01DX009 (ip), vehicle: saline) was 104 % of control; the T/C (dose: 12.5 mg/kg/injection, schedule: Q04DX003 (ip), vehicle: saline) was 101 % of control; the T/C (dose: 25.0 mg/kg/injection, schedule: Q01DX001 (ip), vehicle: saline with Tween-80) is 102 % of control; the T/C (dose: 25.0 mg/kg/injection, schedule: Q01DX009 (ip), vehicle: saline with Tween-80) was 102 % of control; the T/C (dose: 25.0 mg/kg/injection, schedule: Q04DX003 (ip), vehicle: saline with Tween-80) is 98 % of control. In addition, the T/C reads like this: (dose: 25.0 mg/kg/injection, schedule: Q04DX003 (ip), vehicle: saline) 109 % of control; (dose: 36.0 mg/kg/injection, schedule: Q04DX003 (ip), vehicle: saline) 95 % of control; (dose: 50.0 mg/kg/injection, schedule: Q01DX001 (ip), vehicle: saline with Tween-80) 102 % of control; (dose: 50.0 mg/kg/injection, schedule: Q01DX009 (ip), vehicle: saline with Tween-80) 111 % of control; (dose: 50.0 mg/kg/injection, schedule: Q04DX003 (ip), vehicle: saline with Tween-80) 93 % of control; under setting [4], 98 % of control. Also, the T/C is, setting by setting: under setting [5], 105 % of control; (dose: 100.0 mg/kg/injection, schedule: Q04DX003 (ip), vehicle: saline with Tween-80) 97 % of control.
On to `O=C1c2ccccc2-c2cccc3ccc(Cc4ccccc4)c1c23`, for which the T/C under setting [4] is 88 % of control and the T/C under setting [6] was 92 % of control.
Consider `C1CN2CN1CN1CCN(C1)C2`, for which the T/C was 101 % of control (dose: 12.5 mg/kg/injection, schedule: Q01DX009 (ip), vehicle: saline); 108 % of control (dose: 25.0 mg/kg/injection, schedule: Q01DX009 (ip), vehicle: saline); 114 % of control under setting [7].
`O=c1[nH]ccn2cncc12`: the T/C reads like this: (dose: 100.0 mg/kg/injection, schedule: Q04DX003 (ip), vehicle: saline) 93 % of control; (dose: 200.0 mg/kg/injection, schedule: Q04DX003 (ip), vehicle: saline) 103 % of control; (dose: 400.0 mg/kg/injection, schedule: Q04DX003 (ip), vehicle: saline) 106 % of control.
Turning to `COc1ccc(C(=O)NC(=O)C(C(=O)c2ccc(OC)cc2)c2ccccc2)cc1` (centres undefined), where the note is “dose: 100.0 mg/kg/injection, schedule: Q01DX001 (ip), vehicle: other”, the T/C is 86 % of control.
With `CC(O)C(=O)COP(=O)(O)O` (centres undefined), the T/C runs as follows: under setting [1], 96 % of control; under setting [2], 102 % of control; under setting [3], 96 % of control.
Regarding `CC(CN)OC12CC3CC(CC(C3)C1)C2` (centres undefined), the T/C is 91 % of control (dose: 5.0 mg/kg/injection, schedule: Q04DX002 (ip), vehicle: saline); 94 % of control (dose: 10.0 mg/kg/injection, schedule: Q01DX009 (ip), vehicle: saline); 102 % of control (dose: 10.0 mg/kg/injection, schedule: Q04DX002 (ip), vehicle: saline); 101 % of control (dose: 20.0 mg/kg/injection, schedule: Q01DX009 (ip), vehicle: saline); 94 % of control (dose: 20.0 mg/kg/injection, schedule: Q04DX002 (ip), vehicle: saline); 101 % of control (dose: 40.0 mg/kg/injection, schedule: Q01DX009 (ip), vehicle: saline). The T/C (dose: 40.0 mg/kg/injection, schedule: Q04DX002 (ip), vehicle: saline) was 95 % of control and 91 % of control.
Consider `CC1CC(C)(C)OC(C(Cl)(Cl)Cl)O1` (centres undefined), for which the T/C was 98 % of control under setting [7]; 93 % of control (dose: 100.0 mg/kg/injection, schedule: Q01DX009 (ip), vehicle: saline); 112 % of control (dose: 100.0 mg/kg/injection, schedule: Q04DX003 (ip), vehicle: acetone); 93 % of control (dose: 200.0 mg/kg/injection, schedule: Q01DX009 (ip), vehicle: saline); 106 % of control (dose: 200.0 mg/kg/injection, schedule: Q04DX003 (ip), vehicle: acetone); 103 % of control (dose: 400.0 mg/kg/injection, schedule: Q04DX003 (ip), vehicle: acetone).
With `CN(CC(=O)O)C(=O)CNC(=O)OCc1ccccc1` (Cbz-Gly-[Sar]-OH), the T/C (dose: 50.0 mg/kg/injection, schedule: Q01DX009 (ip), vehicle: Klucel (hydroxypropylcellulose) (HPC)) was 105 % of control; the T/C (dose: 50.0 mg/kg/injection, schedule: Q04DX003 (ip), vehicle: Klucel (hydroxypropylcellulose) (HPC)) is 97 % of control; the T/C (dose: 100.0 mg/kg/injection, schedule: Q01DX009 (ip), vehicle: Klucel (hydroxypropylcellulose) (HPC)) was 94 % of control; the T/C (dose: 100.0 mg/kg/injection, schedule: Q04DX003 (ip), vehicle: Klucel (hydroxypropylcellulose) (HPC)) is 97 % of control; the T/C (dose: 200.0 mg/kg/injection, schedule: Q01DX009 (ip), vehicle: Klucel (hydroxypropylcellulose) (HPC)) is 91 % of control; the T/C (dose: 200.0 mg/kg/injection, schedule: Q04DX003 (ip), vehicle: Klucel (hydroxypropylcellulose) (HPC)) was 98 % of control.

The values above are taken from PubChem BioAssay AID248 (DTP/NCI, 2004).
